US5057495A, “Atrial hypotensive peptide” (Queen's University at Kingston, priority 1988, dated 1991)
“Also recorded” adds a separate entry of the source. Bridge positions count the residues as written; N and C are the ends. Peptide text beside a SMILES is read from it.

B1: pro-ANP: precursor of ANP, tested for cross reactivity with the antiserum (protein, UniProt P01161 25-152, looked up)
pro-form: NPVYSAVSNTDLMDFKNLLDHLEEKMPVEDEVMPPQALSEQTDEAGAALSSLSEVPPWTGEVNPSQRDGGALGRGPWDPSDRSALLKSKLRALLAGPRSLRRSSCFGGRIDRIGAQSGLGCNSFRYRR
modifications: pro-form

How the values were obtained:
[1] = test system: assay rats anesthetized with sodium pentobarbital; test: I.V. bolus injection into anesthetized bioassay rats: cardiovascular and renal responses; type: in vivo, rat; settings: 3 nmol bolus injection
Protocol: Experiments were performed using male Sprague-Dawley rats, ranging in weight from 270-362 g. The rats were anesthetized by an intraperitional injection of sodium pentobarbital (70 mg.kg-1; MTC Pharmaceuticals, Hamilton, Ont.). Additional small amounts of anesthetic were administered as required in the course of the experiment. Body temperature was maintained by a heating lamp and rectal temperature monitored by a rectal probe. After installing a tracheal cannula, a femoral vein was cannulated and a priming infusion of saline (0.9% NaCl) was administered over a 20 min period (1.1 ml); this was followed by a maintenance saline infusion of 1.2 ml.h-1. The femoral artery was then cannulated for blood pressure measurement (Statham pressure transducer, model P23Db). A catheter was also advanced via the right external jugular vein towards the right heart for bolus injections of vehicle, ANF or the atrial peptide of the present invention (AHP). After tying off the penis, the bladder was cannulated for urine collection. […] The EKG was recorded for determination of heart rate.
Urine was collected in preweighed vials and volume calculated by weighing. […]
Zero time was established by 40-60 mins from the beginning the priming saline infusion. […] Cardiovascular measurements were analyzed at 5 min intervals during control and at 1, 5, 10, 15 and 20 mins following administration of injectate. […]

[2] = test system: antiserum to iso-rANP(1-20) (P2A); test: Double immunodiffusion / cross reactivity of antiserum raised against P2A; type: binding, rabbit

| Molecule | diuretic, natriuretic, hypotensive and bradycardic response of ring peptides (FIG. 5) [1] | reaction with antiserum against P2A (precipitin lines / cross reactivity) [2] |
| --- | --- | --- |
| CC[C@H](C)[C@@H]1NC(=O)[C@H](CCCNC(=N)N)NC(=O)[C@H](CC(=O)O)NC(=O)[C@H]([C@@H](C)CC)NC(=O)[C@H](CCCCN)NC(=O)[C@H](CCC(N)=O)NC(=O)CNC(=O)[C@H](Cc2ccccc2)NC(=O)[C@@H](N)CSSC[C@@H](C(=O)O)NC(=O)CNC(=O)[C@H](CC(C)C)NC(=O)[C@H](CCCNC(=N)N)NC(=O)[C@H](CO)NC(=O)[C@H](C(C)C)NC(=O)[C@H](C)NC(=O)CNC1=O [Iso-rANP(23-39)] (H-CFGQKIDRIGAVSRLGC-OH; disulfide 1-17) | significant diuretic, natriuretic, hypotensive and bradycardin response |  |
| rANP(23-39): ring portion of rANP [reference compound] | substantially biologically inactive |  |
| B1 |  | No cross reactivity; also recorded: did not cross-react |
